≈ marks a conversion by molar mass, not a printed value.
What was measured:
[1] = biological target: High affinity nerve growth factor receptor (Homo sapiens, UniProt P04629); assay: Inhibition of TRKA assessed as [33P]gamma-ATP incorporation into substrate after 60 mins by gamma counting
[2] = biological target: Maternal embryonic leucine zipper kinase (Homo sapiens, UniProt Q14680); assay: Inhibition of MELK assessed as [33P]gamma-ATP incorporation into substrate after 60 mins by gamma counting
[3] = biological target: Tyrosine-protein kinase JAK3 (Homo sapiens, UniProt P52333); assay: Inhibition of JAK3 assessed as [33P]gamma-ATP incorporation into substrate after 60 mins by gamma counting
Mus musculus = assay: Toxicity in CD1 nu/nu mouse xenografted with human HCT116 cells assessed as mortality at 120 mg/kg, po BID administered on days 1 to 2 in weekly scheduling for 4 cycles; format: organism-based, HCT-116; design: dose 120 mg/kg, route oral; details: in vivo
[4] = biological target: RAC-alpha serine/threonine-protein kinase (Homo sapiens, UniProt P31749); assay: Inhibition of AKT1 assessed as [33P]gamma-ATP incorporation into substrate after 60 mins by gamma counting
[5] = biological target: cAMP-dependent protein kinase catalytic subunit alpha (Homo sapiens, UniProt P17612); assay: Inhibition of PKAalpha assessed as [33P]gamma-ATP incorporation into substrate after 60 mins by gamma counting
[6] = Solubility of compound at pH 7; format: physicochemical; details: buffer
[7] = biological target: MAP kinase-interacting serine/threonine-protein kinase 2 (Homo sapiens, UniProt Q9HBH9); assay: Inhibition of MNK2 assessed as [33P]gamma-ATP incorporation into substrate after 60 mins by gamma counting
[8] = biological target: Protein kinase C beta type (Homo sapiens, UniProt P05771); assay: Inhibition of PKCbeta assessed as [33P]gamma-ATP incorporation into substrate after 60 mins by gamma counting
[9] = biological target: Fibroblast growth factor receptor 1 (Homo sapiens, UniProt P11362); assay: Inhibition of FGFR1 assessed as [33P]gamma-ATP incorporation into substrate after 60 mins by gamma counting
[10] = biological target: Serine/threonine-protein kinase PAK 4 (Homo sapiens, UniProt O96013); assay: Inhibition of PAK4 assessed as [33P]gamma-ATP incorporation into substrate after 60 mins by gamma counting
[11] = Inhibition of CK2 assessed as [33P]gamma-ATP incorporation into substrate after 60 mins by gamma counting
Caco-2 = assay: Apparent permeability of the compound across human Caco2 cells; format: ADME, cell-based
[12] = Apparent permeability of the compound by PAMPA assay; format: ADME
[13] = Inhibition of SULU1 assessed as [33P]gamma-ATP incorporation into substrate after 60 mins by gamma counting
Aurora kinase B = Aurora kinase B (Homo sapiens, UniProt Q96GD4); assay: Inhibition of Aur-B assessed as [33P]gamma-ATP incorporation into substrate after 60 mins by gamma counting
[14] = biological target: Tyrosine-protein kinase JAK1 (Homo sapiens, UniProt P23458); assay: Inhibition of JAK1 assessed as [33P]gamma-ATP incorporation into substrate after 60 mins by gamma counting
[15] = biological target: Protein-tyrosine kinase 6 (Homo sapiens, UniProt Q13882); assay: Inhibition of BRK assessed as [33P]gamma-ATP incorporation into substrate after 60 mins by gamma counting
[16] = biological target: Tyrosine-protein kinase SYK (Homo sapiens, UniProt P43405); assay: Inhibition of Syk assessed as [33P]gamma-ATP incorporation into substrate after 60 mins by gamma counting
HCT-116 [17] = assay: Antitumor activity against human HCT116 cells xenografted in CD1 nu/nu mouse assessed as tumor growth inhibition at 120 mg/kg, po once daily administered on days 1 to 2 daily in weekly scheduling for 4 cycles measured on day 36; details: HCT-116, po, 864 h, read-out: TGI
[18] = biological target: Cyclin-dependent kinase 2/cyclin A (Homo sapiens, UniProt P24941); assay: Inhibition of CDK2/CYCA assessed as [33P]gamma-ATP incorporation into substrate after 60 mins by gamma counting; format: protein-complex assay
[19] = biological target: Inhibitor of nuclear factor kappa-B kinase subunit beta (Homo sapiens, UniProt O14920); assay: Inhibition of IKK2 assessed as [33P]gamma-ATP incorporation into substrate after 60 mins by gamma counting
[20] = biological target: Serine/threonine-protein kinase Chk1 (Homo sapiens, UniProt O14757); assay: Inhibition of CHK1 assessed as [33P]gamma-ATP incorporation into substrate after 60 mins by gamma counting
[21] = biological target: Serine/threonine-protein kinase tousled-like 2 (Homo sapiens, UniProt Q86UE8); assay: Inhibition of TLK2 assessed as [33P]gamma-ATP incorporation into substrate after 60 mins by gamma counting
[22] = biological target: Serine/threonine-protein kinase NIM1 (Homo sapiens, UniProt Q8IY84); assay: Inhibition of NIM1 assessed as [33P]gamma-ATP incorporation into substrate after 60 mins by gamma counting
[23] = biological target: Eukaryotic elongation factor 2 kinase (Homo sapiens, UniProt O00418); assay: Inhibition of EEF2K assessed as [33P]gamma-ATP incorporation into substrate after 60 mins by gamma counting
[24] = biological target: Serine/threonine-protein kinase pim-2 (Homo sapiens, UniProt Q9P1W9); assay: Inhibition of PIM2 assessed as [33P]gamma-ATP incorporation into substrate after 60 mins by gamma counting
[25] = biological target: Glycogen synthase kinase-3 beta (Homo sapiens, UniProt P49841); assay: Inhibition of GSK3-beta assessed as [33P]gamma-ATP incorporation into substrate after 60 mins by gamma counting
[26] = biological target: Serine/threonine-protein kinase pim-1 (Homo sapiens, UniProt P11309); assay: Inhibition of PIM1 assessed as [33P]gamma-ATP incorporation into substrate after 60 mins by gamma counting
[27] = biological target: Serine/threonine-protein kinase Nek6 (Homo sapiens, UniProt Q9HC98); assay: Inhibition of NEK6 assessed as [33P]gamma-ATP incorporation into substrate after 60 mins by gamma counting
HCT-116 [28] = assay: Antitumor activity against human HCT116 cells xenografted in CD1 nu/nu mouse assessed as tumor growth inhibition at 60 mg/kg, po administered once daily for 1 to 10 days measured on day 23; format: functional; details: read-out: TGI
[29] = biological target: Mitotic checkpoint serine/threonine-protein kinase BUB1 (Homo sapiens, UniProt O43683); assay: Inhibition of BUB1 assessed as [33P]gamma-ATP incorporation into substrate after 60 mins by gamma counting
Activated CDC42 kinase 1 = Activated CDC42 kinase 1 (Homo sapiens, UniProt Q07912); assay: Inhibition of ACK1 assessed as [33P]gamma-ATP incorporation into substrate after 60 mins by gamma counting
[30] = biological target: Cyclin-dependent kinase 2/cyclin E1 (Homo sapiens, UniProt P24941); assay: Inhibition of CDK2/CYCE assessed as [33P]gamma-ATP incorporation into substrate after 60 mins by gamma counting; format: protein-complex assay
Ephrin type-A receptor 2 = Ephrin type-A receptor 2 (Homo sapiens, UniProt P29317); assay: Inhibition of EphA2 assessed as [33P]gamma-ATP incorporation into substrate after 60 mins by gamma counting

Serine/threonine-protein kinase Chk1, sequence (O14757 whole entry): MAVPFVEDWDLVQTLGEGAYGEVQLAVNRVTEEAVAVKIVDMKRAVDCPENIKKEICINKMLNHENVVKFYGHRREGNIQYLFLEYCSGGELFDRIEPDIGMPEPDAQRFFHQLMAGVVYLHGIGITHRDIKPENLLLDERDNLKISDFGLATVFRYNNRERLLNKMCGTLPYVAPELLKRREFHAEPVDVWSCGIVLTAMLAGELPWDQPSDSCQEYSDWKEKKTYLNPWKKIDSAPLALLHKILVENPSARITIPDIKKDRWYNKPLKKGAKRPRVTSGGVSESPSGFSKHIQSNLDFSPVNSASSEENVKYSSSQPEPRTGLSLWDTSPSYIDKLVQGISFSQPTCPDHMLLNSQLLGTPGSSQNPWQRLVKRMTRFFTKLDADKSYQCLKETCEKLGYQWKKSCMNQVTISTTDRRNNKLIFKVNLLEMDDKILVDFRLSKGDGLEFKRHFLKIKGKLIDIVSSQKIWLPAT
Tyrosine-protein kinase JAK1, sequence (P23458 whole entry): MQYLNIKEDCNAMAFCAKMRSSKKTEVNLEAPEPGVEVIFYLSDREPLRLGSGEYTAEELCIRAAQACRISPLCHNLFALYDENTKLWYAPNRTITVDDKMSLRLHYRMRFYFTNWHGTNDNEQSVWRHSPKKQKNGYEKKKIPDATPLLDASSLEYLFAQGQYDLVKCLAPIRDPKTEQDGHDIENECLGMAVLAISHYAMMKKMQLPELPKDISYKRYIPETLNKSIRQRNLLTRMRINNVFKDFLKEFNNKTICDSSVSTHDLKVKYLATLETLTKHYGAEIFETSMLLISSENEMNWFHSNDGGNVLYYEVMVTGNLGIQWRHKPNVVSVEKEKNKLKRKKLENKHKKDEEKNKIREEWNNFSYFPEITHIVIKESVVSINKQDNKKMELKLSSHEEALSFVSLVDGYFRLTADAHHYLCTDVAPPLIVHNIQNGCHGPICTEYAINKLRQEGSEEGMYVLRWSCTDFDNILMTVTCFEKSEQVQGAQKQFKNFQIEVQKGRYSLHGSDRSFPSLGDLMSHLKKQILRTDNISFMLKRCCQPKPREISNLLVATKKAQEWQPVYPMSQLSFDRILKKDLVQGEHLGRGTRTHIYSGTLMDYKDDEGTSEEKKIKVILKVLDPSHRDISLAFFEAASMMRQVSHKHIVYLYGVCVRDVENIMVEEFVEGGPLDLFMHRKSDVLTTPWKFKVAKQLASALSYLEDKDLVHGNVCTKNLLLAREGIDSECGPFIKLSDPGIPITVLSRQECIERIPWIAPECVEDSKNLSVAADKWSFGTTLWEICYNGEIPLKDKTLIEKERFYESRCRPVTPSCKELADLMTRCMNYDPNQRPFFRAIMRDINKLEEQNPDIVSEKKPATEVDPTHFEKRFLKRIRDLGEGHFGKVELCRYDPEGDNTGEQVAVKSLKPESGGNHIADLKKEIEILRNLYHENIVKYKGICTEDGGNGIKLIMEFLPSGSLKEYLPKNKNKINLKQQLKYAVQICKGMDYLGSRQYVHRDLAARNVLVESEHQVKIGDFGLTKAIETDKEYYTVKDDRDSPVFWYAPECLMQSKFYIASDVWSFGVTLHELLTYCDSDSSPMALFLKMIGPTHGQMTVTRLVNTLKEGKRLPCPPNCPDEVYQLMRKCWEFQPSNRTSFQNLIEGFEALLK
High affinity nerve growth factor receptor, sequence (P04629 whole entry): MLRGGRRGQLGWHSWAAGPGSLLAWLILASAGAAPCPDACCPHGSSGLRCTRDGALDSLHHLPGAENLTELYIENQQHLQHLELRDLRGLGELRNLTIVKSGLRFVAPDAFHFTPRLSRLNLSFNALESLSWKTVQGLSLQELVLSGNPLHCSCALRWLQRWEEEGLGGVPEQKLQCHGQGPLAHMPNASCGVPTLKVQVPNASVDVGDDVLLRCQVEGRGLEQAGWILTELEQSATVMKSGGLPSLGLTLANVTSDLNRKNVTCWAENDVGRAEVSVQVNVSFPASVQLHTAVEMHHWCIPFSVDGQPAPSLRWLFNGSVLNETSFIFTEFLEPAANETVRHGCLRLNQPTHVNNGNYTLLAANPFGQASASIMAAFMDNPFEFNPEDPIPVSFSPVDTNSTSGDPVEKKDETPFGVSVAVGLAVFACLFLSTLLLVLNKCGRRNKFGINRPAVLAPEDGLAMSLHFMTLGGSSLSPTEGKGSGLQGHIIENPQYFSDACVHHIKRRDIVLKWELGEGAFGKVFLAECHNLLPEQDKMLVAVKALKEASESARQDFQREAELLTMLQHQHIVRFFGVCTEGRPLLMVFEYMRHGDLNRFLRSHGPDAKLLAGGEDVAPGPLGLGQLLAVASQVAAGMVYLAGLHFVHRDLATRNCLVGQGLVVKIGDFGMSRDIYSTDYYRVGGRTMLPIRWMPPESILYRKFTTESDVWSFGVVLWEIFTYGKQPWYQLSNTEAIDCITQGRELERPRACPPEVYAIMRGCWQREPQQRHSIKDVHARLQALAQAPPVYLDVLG
Eukaryotic elongation factor 2 kinase, sequence (O00418 whole entry): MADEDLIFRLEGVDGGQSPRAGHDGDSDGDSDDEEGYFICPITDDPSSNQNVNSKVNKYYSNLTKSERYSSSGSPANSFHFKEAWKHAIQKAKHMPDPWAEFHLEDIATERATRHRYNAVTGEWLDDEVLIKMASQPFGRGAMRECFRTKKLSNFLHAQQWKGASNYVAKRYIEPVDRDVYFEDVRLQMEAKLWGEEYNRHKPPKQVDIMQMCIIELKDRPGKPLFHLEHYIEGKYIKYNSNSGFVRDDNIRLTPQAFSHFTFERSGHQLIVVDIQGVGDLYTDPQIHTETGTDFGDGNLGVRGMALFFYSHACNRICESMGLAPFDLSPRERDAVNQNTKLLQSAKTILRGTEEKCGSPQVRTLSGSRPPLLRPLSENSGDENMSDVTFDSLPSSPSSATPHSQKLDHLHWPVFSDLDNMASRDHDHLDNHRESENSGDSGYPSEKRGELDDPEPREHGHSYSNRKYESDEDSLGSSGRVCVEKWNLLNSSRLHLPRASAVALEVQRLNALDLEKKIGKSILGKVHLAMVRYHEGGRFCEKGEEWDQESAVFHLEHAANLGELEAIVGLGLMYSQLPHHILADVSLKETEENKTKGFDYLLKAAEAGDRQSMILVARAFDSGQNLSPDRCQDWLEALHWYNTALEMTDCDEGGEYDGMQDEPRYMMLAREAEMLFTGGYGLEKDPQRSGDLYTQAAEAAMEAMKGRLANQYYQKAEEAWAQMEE
Tyrosine-protein kinase JAK3, sequence (P52333 whole entry): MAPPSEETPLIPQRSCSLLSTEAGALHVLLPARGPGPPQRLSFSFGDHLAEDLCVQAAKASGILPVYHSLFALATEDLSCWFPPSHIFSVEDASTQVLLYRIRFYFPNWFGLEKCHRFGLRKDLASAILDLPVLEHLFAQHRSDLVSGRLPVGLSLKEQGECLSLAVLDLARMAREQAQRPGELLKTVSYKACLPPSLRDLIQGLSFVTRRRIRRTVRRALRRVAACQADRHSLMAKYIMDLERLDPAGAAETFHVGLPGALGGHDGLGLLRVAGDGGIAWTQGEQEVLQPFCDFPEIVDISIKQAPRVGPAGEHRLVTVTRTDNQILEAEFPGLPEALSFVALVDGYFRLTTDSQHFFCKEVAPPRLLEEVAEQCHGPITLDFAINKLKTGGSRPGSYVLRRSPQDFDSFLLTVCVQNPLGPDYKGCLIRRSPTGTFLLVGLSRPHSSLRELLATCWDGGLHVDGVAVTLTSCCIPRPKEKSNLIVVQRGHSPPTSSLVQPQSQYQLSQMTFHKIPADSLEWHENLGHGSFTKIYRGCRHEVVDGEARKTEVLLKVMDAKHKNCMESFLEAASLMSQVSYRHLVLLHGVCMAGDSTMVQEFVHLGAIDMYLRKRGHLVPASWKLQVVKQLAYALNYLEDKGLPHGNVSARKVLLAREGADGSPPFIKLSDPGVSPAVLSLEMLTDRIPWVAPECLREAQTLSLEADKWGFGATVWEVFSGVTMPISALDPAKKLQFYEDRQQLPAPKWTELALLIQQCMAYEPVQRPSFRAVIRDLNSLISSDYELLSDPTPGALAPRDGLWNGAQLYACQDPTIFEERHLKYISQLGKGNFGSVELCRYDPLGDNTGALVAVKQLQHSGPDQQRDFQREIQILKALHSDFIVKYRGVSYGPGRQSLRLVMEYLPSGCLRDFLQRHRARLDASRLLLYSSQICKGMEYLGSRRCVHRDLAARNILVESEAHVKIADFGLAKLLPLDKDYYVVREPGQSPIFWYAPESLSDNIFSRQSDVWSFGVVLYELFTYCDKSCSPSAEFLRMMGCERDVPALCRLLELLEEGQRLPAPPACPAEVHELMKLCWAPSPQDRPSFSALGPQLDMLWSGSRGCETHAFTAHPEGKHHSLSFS
Protein-tyrosine kinase 6, sequence (Q13882 whole entry): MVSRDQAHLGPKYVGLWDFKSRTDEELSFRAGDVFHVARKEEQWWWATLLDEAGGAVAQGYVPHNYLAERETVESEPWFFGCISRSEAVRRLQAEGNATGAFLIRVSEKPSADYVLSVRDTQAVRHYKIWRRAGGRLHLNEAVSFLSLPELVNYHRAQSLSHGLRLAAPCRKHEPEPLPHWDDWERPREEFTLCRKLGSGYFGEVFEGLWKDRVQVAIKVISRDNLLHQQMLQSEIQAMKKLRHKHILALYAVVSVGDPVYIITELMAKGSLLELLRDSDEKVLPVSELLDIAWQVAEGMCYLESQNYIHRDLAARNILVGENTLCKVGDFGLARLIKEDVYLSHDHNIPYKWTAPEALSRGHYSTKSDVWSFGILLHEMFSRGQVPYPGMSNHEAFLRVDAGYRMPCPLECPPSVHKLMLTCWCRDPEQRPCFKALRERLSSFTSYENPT
Serine/threonine-protein kinase Nek6, sequence (Q9HC98 whole entry): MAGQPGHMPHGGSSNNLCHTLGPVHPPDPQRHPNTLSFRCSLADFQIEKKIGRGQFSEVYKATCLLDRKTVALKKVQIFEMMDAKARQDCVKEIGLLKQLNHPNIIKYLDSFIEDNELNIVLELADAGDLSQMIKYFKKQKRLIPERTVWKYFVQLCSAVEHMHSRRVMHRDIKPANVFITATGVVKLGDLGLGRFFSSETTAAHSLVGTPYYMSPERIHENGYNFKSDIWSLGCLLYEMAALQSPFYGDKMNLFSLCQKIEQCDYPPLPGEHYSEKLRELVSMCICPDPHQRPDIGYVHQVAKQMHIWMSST

CN1CCN(c2ccc(OC(F)(F)F)c(Nc3ncc4c(n3)-c3c(c(C(N)=O)nn3CCO)CC4)c2)CC1 [ONVANSERTIB]
IC50 [1]: > 10 µM | IC50 [2]: […] | IC50 [3]: > 10 µM | Activity (Mus musculus): Non-toxic | IC50 [4]: > 10 µM | IC50 [5]: > 10 µM | solubility [6]: 201 µM (≈ 107 µg/mL) | IC50 [7]: > 10 µM | IC50 [8]: > 10 µM | IC50 [9]: > 10 µM | IC50 [10]: > 10 µM | IC50 [11]: 0.826 µM | Papp (Caco-2): permeable | Papp [12]: 49.6 ×10⁻⁶ cm/s | IC50 [13]: > 10 µM | IC50 (Aurora kinase B): > 10 µM | IC50 [14]: > 10 µM | IC50 [15]: > 10 µM | IC50 [16]: > 10 µM | inhibition in vivo at 120 mg/kg (HCT-116 [17]): 84% | IC50 [18]: > 10 µM | IC50 [19]: > 10 µM | IC50 [20]: > 10 µM | IC50 [21]: > 10 µM | IC50 [22]: > 10 µM | IC50 [23]: > 10 µM | IC50 [24]: > 10 µM | IC50 [25]: > 10 µM | IC50 [26]: > 10 µM | IC50 [27]: > 10 µM | inhibition in vivo at 60 mg/kg (HCT-116 [28]): 89% | IC50 [29]: > 10 µM | IC50 (Activated CDC42 kinase 1): > 10 µM | IC50 [30]: > 10 µM | IC50 (Ephrin type-A receptor 2): > 10 µM
